Data as given in EP4257133A1, “OXO-AZAHETEROCYCLIC DERIVATIVES FOR USE IN THE TREATMENT OF MALARIA” (Institut Pasteur, priority 2022, dated 2023).
Like-named read-outs stand apart in the source and are kept apart here.

Experiments:
[1] = target: T1, phosphorylated recombinant human PRDX6 (Homo sapiens, UniProt P30041); experiment: Radioactive PLA2 activity assay; assay type: biochemical; settings: read-out: IC50 of inhibition of PLA2 activity of PRDX6
T1 sequence (P30041 1-224): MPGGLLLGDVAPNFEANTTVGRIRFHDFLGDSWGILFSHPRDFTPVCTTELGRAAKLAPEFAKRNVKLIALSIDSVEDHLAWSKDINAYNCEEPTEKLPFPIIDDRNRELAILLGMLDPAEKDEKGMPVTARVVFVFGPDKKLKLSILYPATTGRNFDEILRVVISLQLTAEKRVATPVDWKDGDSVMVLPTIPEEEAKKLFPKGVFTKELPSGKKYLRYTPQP
Text: (§1) In early and late trophozoites, multiple PRDX6 foci (white arrow heads) were observed adjacent to the parasite FV. DNA, Hoechst 33342 (nuclei). Scale bars: 5 µm. (B-F) Immuno-transmission electron microscopy (TEM) using monoclonal mouse anti-PRDX6 antibody. (B) Uninfected RBC showing even cytosolic staining for PRDX6. (C-F) P. falciparum-infected RBCs show co-localization of PRDX6 and hemoglobin in vesicles at the inner surface of the parasite plasma membrane in structures that resemble cytostomes (black arrows), at the FV (white arrows), or within the parasite cytosol (striped grey arrow). Scale bars: 500 nm. […] Parasites were treated at ring stage and growth to schizont stage in the same cycle ("progression") or to next generation rings ("growth") was scored by flow cytometry using DNA intercalating fluorescent dye SYBR Green I. • Figure 3 concerns the radioactive PLA2 activity assay using phosphorylated recombinant human PRDX6 in presence or absence of Darapladib. Darapladib inhibits PLA2 activity of PRDX6 with IC50 of ≈0.5µM. • Figure 4 is related to the co-treatment of ART-resistant parasites with artemisinin and Darapladib synergistically reduces parasite survival. […] The thermal shift of the melting temperature of PRDX6 in presence of Darapladib was determined using a SYPRO orange-based differential scanning fluorimetry (DSF) assay. ΔTm > 0.5°C was considered significant. […]

NF54 Kelch13^C580Y [2] = experiment: Ring stage survival assay (RSA); assay type: cell-based, P. falciparum; settings: mean ± SD of six experiments
Text: (§2) In early and late trophozoites, multiple PRDX6 foci (white arrow heads) were observed adjacent to the parasite FV. DNA, Hoechst 33342 (nuclei). Scale bars: 5 µm. (B-F) Immuno-transmission electron microscopy (TEM) using monoclonal mouse anti-PRDX6 antibody. (B) Uninfected RBC showing even cytosolic staining for PRDX6. (C-F) P. falciparum-infected RBCs show co-localization of PRDX6 and hemoglobin in vesicles at the inner surface of the parasite plasma membrane in structures that resemble cytostomes (black arrows), at the FV (white arrows), or within the parasite cytosol (striped grey arrow). Scale bars: 500 nm. […] Parasites were treated at ring stage and growth to schizont stage in the same cycle ("progression") or to next generation rings ("growth") was scored by flow cytometry using DNA intercalating fluorescent dye SYBR Green I. • Figure 3 concerns the radioactive PLA2 activity assay using phosphorylated recombinant human PRDX6 in presence or absence of Darapladib. Darapladib inhibits PLA2 activity of PRDX6 with IC50 of ≈0.5µM. • Figure 4 is related to the co-treatment of ART-resistant parasites with artemisinin and Darapladib synergistically reduces parasite survival. (A) Ring stage survival assays (RSA) (Witkowski et al., Lancet Infect. Dis. 13, 1043-1049 (2013)) with Darapladib (Dar) and Dihydroartemisinin (DHA) against ART-resistant P. falciparum strains. For detailed data regarding synergism, cf. Table 1. (B) Growth/Progression assay with continuous Darapladib treatment against ART-resistant P. falciparum strains. Data are means ± SD of three independent experiments, unpaired t-tests. […] The thermal shift of the melting temperature of PRDX6 in presence of Darapladib was determined using a SYPRO orange-based differential scanning fluorimetry (DSF) assay. ΔTm > 0.5°C was considered significant. Incubation with 25µM Darapladib decreased the Tm of PRDX6 by 1.1 ± 0.2 °C.
(§3) It has been investigated whether co-treatment with Darapladib and ART could restore ART-susceptibility in the ring stage survival assay (RSA).
(§4) The survival rate for treatment with 1 µM Darapladib alone and 700 nM DHA alone was multiplied to calculate a theoretical survival rate if the effect of the combination was additive ("Calc. Additive"). The experimentally measured survival rate ("Measured") was divided by the calculated theoretical additive survival rate for the co-treatment. A ratio < 1 for Measured/Calc. indicates synergism, a ratio = 1 indicates an additive effect and a ratio > 1 indicates an antagonistic effect. Data are means ± SD of six independent experiments for NF54 C580Y and three independent experiments for 3815, unpaired t-test.

3815 strain [3] = experiment: Ring stage survival assay (RSA); assay type: cell-based, P. falciparum; settings: mean ± SD of three experiments
Text: as §2, §3, §4

PRDX6 [4] = target: T2, PRDX6 (Homo sapiens, UniProt P30041); experiment: SYPRO orange-based differential scanning fluorimetry (DSF) assay; assay type: binding; design: endogenous in cells; inferred to be P. falciparum-infected human red blood cells, because host and parasite proteins were profiled together; settings: incubation with 25µM; ΔTm > 0.5°C considered significant
T2 sequence (P30041 1-224): T1 sequence (P30041 1-224)
Text: as §1, with “Darapladib.” for “Darapladib. Darapladib inhibits PLA2 activity of PRDX6 with IC50 of ≈0.5µM. • Figure 4 is related to the co-treatment of ART-resistant parasites with artemisinin and Darapladib synergistically reduces parasite survival.”
Binding of the compounds of the invention to PRDX6 induces a significant shift in the melting temperature of PRDX6 which can be detected using the hydrophobic fluorescent dye SYPRO orange (Figure 5). […]

NF54 Kelch13^C580Y [5] = experiment: Growth/Progression assay with continuous treatment; assay type: cell-based, P. falciparum; settings: continuous treatment during the complete blood stage cycle
Text: as §1

3815 strain [6] = experiment: Growth/Progression assay with continuous treatment; assay type: cell-based, P. falciparum; settings: continuous treatment during the complete blood stage cycle
Text: as §1

P. falciparum 3D7 = experiment: Blood stage progression and growth assay, flow cytometry with SYBR Green I; assay type: cell-based; settings: for IC50: Plasmodium falciparum, 3D7, n = 3 in triplicates
Text: as §2, with “1.” for “1. (B) Growth/Progression assay with continuous Darapladib treatment against ART-resistant P. falciparum strains. Data are means ± SD of three independent experiments, unpaired t-tests.”, “Incubation with 25µM Darapladib decreased the Tm of PRDX6 by 1.1 ± 0.2 °C.” left out
Darapladib was also tested in vitro for its ability to block P. falciparum blood stage growth and progression from rings to schizonts. Synchronous P. falciparum 3D7 cultures were treated at the ring stage and effects on ring to schizont development ("progression") and multiplication following completion of a full blood stage cycle ("growth") were assessed by flow cytometry using the DNA intercalating fluorescent dye SYBR Green I. […]

PRDX6 [7] = target: T2, PRDX6; experiment: ITDR-CETSA (IsoThermal Dose Response-Cellular Thermal Shift Assay); assay type: cell-based; design: endogenous in cells; inferred to be P. falciparum-infected human red blood cells, because host and parasite proteins were profiled together; settings: host and parasite proteins
PRDX6 [8] = target: T2, PRDX6; experiment: Activity-based protein profiling (ABPP), competition with the probe TAMRA-FP; assay type: binding; settings: fluorescent labelling of PRDX6
Text: Darapladib has been assessed for the binding to the PLA2 active site of PRDX6 by activity-based protein profiling (ABPP) using recombinant human PRDX6 and the fluorescently tagged probe TAMRA-FP that covalently labels the serine in the PLA2 active site of PRDX6.

| SMILES | IC50 [1] [µM] | Parasite survival, Drugs Alone, Dar 1µM (NF54 Kelch13^C580Y [2]; 1 µM Darapladib alone) [%] | Parasite survival, Drugs Alone, Dar 1µM (3815 strain [3]; 3815, 1 µM Darapladib alone) [%] | decrease of the Tm of PRDX6 (PRDX6 [4]) [°C] | blood stage growth (NF54 Kelch13^C580Y [5]) | blood stage growth (3815 strain [6]) | parasite development (P. falciparum 3D7; 3D7 cultures treated at the ring stage) | IC50 (P. falciparum 3D7; ring stage to schizont, read-out: IC50 for parasite progression) [µM] | IC50 (P. falciparum 3D7; whole cycle, ring to ring, read-out: IC50 for parasite growth) [µM] | specificity for PRDX6 (PRDX6 [7]) | binding to the PLA2 active site of PRDX6 (PRDX6 [8]) | Parasite survival, Drugs Alone, DHA (NF54 Kelch13^C580Y [2]; 700 nM DHA alone) [%] | Parasite survival, Drugs Alone, DHA (3815 strain [3]; 3815, 700 nM DHA alone) [%] |
| --- | --- | --- | --- | --- | --- | --- | --- | --- | --- | --- | --- | --- | --- |
| CCN(CC)CCN(Cc1ccc(-c2ccc(C(F)(F)F)cc2)cc1)C(=O)Cn1c(SCc2ccc(F)cc2)nc(=O)c2c1CCC2 [Darapladib] | ~0.5 | 89.0 ± 8.1 | 94.7 ± 3.2 | 1.1 ± 0.2 | effectively blocked blood stage growth | effectively blocked blood stage growth | arrested parasite development at the trophozoite stage | 0.56 | 0.76 | no other essential host or parasite protein is targeted | bound the PLA2 active site of PRDX6, competed with TAMRA-FP and reduced the fluorescent labelling of PRDX6 | – | – |
| C[C@H]1[C@@H](O)O[C@@H]2O[C@@]3(C)CC[C@H]4[C@H](C)CC[C@@H]1[C@@]24OO3 [DHA, Dihydroartemisinin] | – | – | – | – | – | – | – | – | – | – | – | 7.9 ± 1.7 | 7.1 ± 0.9 |
